Values quoted from earlier work in patent US11399558B2, “Rebaudioside-D containing sweetener compositions” (Heartland Consumer Products, LLC, priority 2015, dated 2022).
Read-outs that look alike come from different tables or passages of the source.

Legend:
[1] = for Solubility in ethanol: ethanol / alcohol
[2] = heat, acid, and alkaline conditions
[3] = on a weight basis
[4] = absorbed into the bloodstream in the small intestine
[5] = Chang et al. 1983

Solubility in DMSO ([1]; DMSO)	Solubility in ethanol [1]	Solubility in ethanol ([1]; listed as Erythritol)	Solubility in water [1]	Solubility in water ([1]; listed as Erythritol)	Stability [2]	Stability in carbonated beverages [5]	Compound	Sweetness relative to sucrose (cane sugar) [3]	Excretion [4]
Insoluble	Slight	slightly soluble	Soluble	water soluble	stable	–	OC[C@@H](O)[C@@H](O)CO [Eryrithritol, 1,2,3,4-butanetetrol]	about 70%	for the most part is excreted unchanged in the urine
–	–	–	–	–	–	heat and pH stability	C=C1C[C@@]23CC[C@H]4[C@@](C)(CCC[C@@]4(C)C(=O)O[C@@H]4O[C@H](CO)[C@@H](O)[C@H](O)[C@H]4O)[C@@H]2CC[C@]1(O[C@@H]1O[C@H](CO)[C@@H](O)[C@H](O[C@@H]2O[C@H](CO)[C@@H](O)[C@H](O)[C@H]2O)[C@H]1O[C@@H]1O[C@H](CO)[C@@H](O)[C@H](O)[C@H]1O)C3 [Rebaudioside A]	–	–
–	–	–	–	–	–	heat and pH stability	C=C1C[C@@]23CC[C@H]4[C@@](C)(CCC[C@@]4(C)C(=O)O[C@@H]4O[C@H](CO)[C@@H](O)[C@H](O)[C@H]4O)[C@@H]2CC[C@]1(O[C@@H]1O[C@H](CO)[C@@H](O)[C@H](O)[C@H]1O[C@@H]1O[C@H](CO)[C@@H](O)[C@H](O)[C@H]1O)C3 [Stevioside]	–	–
